In article PMC6680840 (Molecules, 2019):
Several values for one entry are separate records, joined by “and”; a condition that tells them apart may be missing. Equal values may be shown once. Entries after “also recorded” stand apart in the source; their conditions may differ.

Legend:
[1] = tested on: Aβ1-42-induced toxicity in SH-SY5Y cells; assay: Protective activity against Aβ1-42-induced toxicity, MTT method; type: cell-based; conditions: for viability at 5 µM / viability at 10 µM: Homo sapiens, SH-SY5Y, 24 h, read-out: cell viability of Aβ1-42-treated SH-SY5Y cells
Procedure: Based on this observation, compound 23 might be a more promising protective agent against Aβ1-42-induced toxicity on the SH-SY5Y cell model.
(§1) The MTT method was used to test the cytotoxicity and neuroprotective activity evaluation of compounds. The detailed procedure was included in Supplementary Materials. […]
(§2) formazan crystals. The formazan dye product was measured by the absorbance at 490 nm on a Tecan Spark multimode microplate reader (Tecan, Switzerland).
(§3) Neuroprotective activity assay
(§4) SH-SY5Y cells were maintained at 37 °C in a humidified atmosphere containing 5% CO2. Cells were seeded into multi-well plates at a density of 2~2.5 × 10^5 cells/mL in DMEM medium, supplemented with 10% heat-inactivated bovine calf serum (Gibco, South America Origin). Experiments were carried out in 24 h after cells were seeded.
Aβ1–42 were stored at 4 °C until 0.1 mM stock solutions were prepared in phosphate bufer saline (PBS) on the day of application to cultures. Th e compounds were first dissolved with DMSO and then diluted with DMEM medium. After pretreatment with the compounds for 2 h, Aβ1–42 were added to SH-SY5Y cell cultures in 24 h. Assays for cell viability were performed in 24 h after cultured in fresh medium .

[2] = target: T1, AChE (from human erythrocyte) (Homo sapiens, UniProt P22303); assay: biochemical; conditions: at 50 μM
T1 construct: AChE (EC 3.1.1.8, from human erythrocyte); purchased Sigma-Aldrich (St. Louis, MO, USA); host or cells: human erythrocyte
T1 sequence (P22303 other isoform, or with tags, fused parts or gaps): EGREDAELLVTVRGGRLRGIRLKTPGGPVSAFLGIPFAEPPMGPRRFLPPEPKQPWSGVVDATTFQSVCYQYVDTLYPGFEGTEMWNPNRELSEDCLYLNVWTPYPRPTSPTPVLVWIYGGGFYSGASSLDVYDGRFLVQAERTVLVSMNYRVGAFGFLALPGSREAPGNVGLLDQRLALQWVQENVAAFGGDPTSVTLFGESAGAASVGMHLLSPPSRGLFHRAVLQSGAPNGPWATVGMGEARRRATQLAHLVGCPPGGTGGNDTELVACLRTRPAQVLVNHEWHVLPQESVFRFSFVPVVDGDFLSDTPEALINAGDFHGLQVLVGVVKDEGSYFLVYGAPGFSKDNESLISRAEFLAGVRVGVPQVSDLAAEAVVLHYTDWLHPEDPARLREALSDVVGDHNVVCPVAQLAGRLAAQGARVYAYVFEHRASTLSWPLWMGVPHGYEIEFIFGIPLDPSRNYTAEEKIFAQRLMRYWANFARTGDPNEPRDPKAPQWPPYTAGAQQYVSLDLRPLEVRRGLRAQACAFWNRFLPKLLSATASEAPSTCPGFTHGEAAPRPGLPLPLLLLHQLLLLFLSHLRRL
Procedure: (§5) BChE (EC 3.1.1.8, from human serum), AChE (EC […]), butyrylthiocholine (BUC) iodide, and acetylthiocholine (ATC) iodide were purchased from Sigma-Aldrich (St. Louis, MO, USA). Enzyme was dissolved and pre-prepared at 2.0 U/mL. 10 μL of enzyme, 20 μL of 0.01 M 5,5′-dithiobis(2-nitrobenzoic acid), 10 μL of tested compound, and 40 μL of PBS were pre-incubated together for 5 min. Io initiate the reaction, 20 μL of 0.01 M BUC or ATC was added. The activity was determined by measuring the increase in absorbance at 410 nm at 37 °C in 2 min intervals using Tecan Spark multimode microplate reader (Mannedorf, Switzerland). The percentage of inhibition (I) was calculated according to the formula: I = (Ac − Ai)/Ac × 100%, with Ai and Ac representing the change in the absorbance in the presence of an inhibitor and without an inhibitor, respectively.

[3] = target: T2, BChE (EC 3.1.1.8, from human serum) (Homo sapiens, UniProt P06276); assay: biochemical; conditions: for BChE IR (%) inhibition ratio: at 50 μM; for improved BChE inhibitory activity, folds compared with 1: compared with hit 1; for IC50: mean ± SD of three separate experiments
T2 construct: BChE (EC 3.1.1.8, from human serum); purchased Sigma-Aldrich (St. Louis, MO, USA); host or cells: human serum
T2 sequence (P06276 29-602): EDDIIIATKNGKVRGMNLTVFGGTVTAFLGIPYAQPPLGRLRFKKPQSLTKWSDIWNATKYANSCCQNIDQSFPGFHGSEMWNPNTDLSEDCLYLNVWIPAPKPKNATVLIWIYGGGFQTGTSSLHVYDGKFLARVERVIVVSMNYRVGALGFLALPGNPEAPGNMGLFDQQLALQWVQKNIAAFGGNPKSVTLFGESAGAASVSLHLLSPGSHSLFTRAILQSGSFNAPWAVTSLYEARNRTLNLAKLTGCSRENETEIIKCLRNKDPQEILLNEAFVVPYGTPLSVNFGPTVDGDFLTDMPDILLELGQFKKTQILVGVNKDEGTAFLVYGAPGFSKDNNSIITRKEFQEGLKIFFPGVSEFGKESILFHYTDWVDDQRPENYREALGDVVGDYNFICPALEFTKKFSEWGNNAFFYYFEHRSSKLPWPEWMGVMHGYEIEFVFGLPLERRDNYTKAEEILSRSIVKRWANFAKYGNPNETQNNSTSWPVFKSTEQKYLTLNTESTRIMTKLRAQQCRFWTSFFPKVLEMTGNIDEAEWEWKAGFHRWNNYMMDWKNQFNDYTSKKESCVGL
Procedure: as §5

[4] = tested on: SH-SY5Y neuroblastoma cells; assay: Cell viability (cytotoxicity) MTT assay; type: cell-based; conditions: tested concentrations up to 200 μM
Procedure: as §1
42 and ThT; in the presence of Aβ1–42 and THT but no inhibitors; and the blanks […]
SH-SY5Y cells were inoculated into 96-well plates, and each well was seeded with […]. After incubation for 24 h, the medium was removed and replaced with 100 µL medium containing the different concentrations of tested compounds for 24 h, and then incubated with 10 µL of 3-(4,5-dimethylthiazol-2-yl)-2,5-diphenyltetrazolium bromide (MTT) at 37 °C for 3 h. In this step, 100 µL DMSO was added to dissolve the […]
(1 picture or pasted object on this page, not shown here) […]
as §2, §3
as §4, with “seeded. […]” for “seeded.”
Th e compounds were first dissolved with DMSO and then diluted with DMEM medium. […]

Aβ1-42 aggregation = target: T3, Aβ1-42 aggregation (Homo sapiens, UniProt P05067); assay: Inhibition of Aβ1-42 aggregation, thioflavin T (ThT) method; type: biochemical; conditions: for inhibitory activity against Aβ1-42 aggregation (in words): 1 to 10 μM; for inhibition ratio towards Aβ1-42 aggregation: at 10 μM
T3 construct: pre-treated Aβ1–42 (GL Biochem Ltd); purchased GL Biochem Ltd, shanghai, China
T3 sequence (P05067 672-713): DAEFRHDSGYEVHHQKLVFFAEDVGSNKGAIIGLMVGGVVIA
Procedure: The ThT-based fluorometric assay [54] was performed for the determination of compounds’ anti-Aβ1–42 aggregation potency.
Determination of the inhibitory potency on Aβ1–42 aggregation
1,1,1,3,3,3-hexafluoro-2-propanol (HFIP) pre-treated Aβ1–42 (GL Biochem Ltd, shanghai, China) was dissolved in DMSO to make a 200 μM stock solution. The stock solution was centrifuged at the speed of 13,500 rpm for 10 min. The above supernatant was used for further experiments. The compounds for testing were dissolved in DMSO at concentrations of 0.8 mM. A screening assay for the compounds to inhibit Aβ aggregation was performed by measuring ThT fluorescence emission.
μL) and 2 μL of 200 μM Aβ1–42 were added into 76 μL of phosphate-bufered saline (PBS at pH 7.4) in a 96-well microtiter plate. After incubation for 24 h at room temperature, 80 μL of 5 μM ThT solution (in 50 mM glycine-NaOH at pH 8.5) was added to the reaction solution. Fluorescence emission was measured at 490 nm with an excitation wavelength of 450 nm on a Tecan Spark multimode microplate reader. The fluorescence intensities were compared and the % inhibition was calculated by the following equation: 100 − [(Fi − Fb)/(Fo − Fb) × 100] where Fi, Fo and Fb are the fluorescence intensities obtained for Aβ aggregation in the presence of inhibitors, A β1– 42 and ThT; in the presence of Aβ1–42 and THT but no inhibitors; and the blanks

BChE = target: T4, BChE (Homo sapiens, UniProt P06276); assay: Kinetic study of BChE inhibition (Lineweaver-Burk); type: biochemical
T4 construct: BChE (EC 3.1.1.8, from human serum); purchased Sigma-Aldrich (St. Louis, MO, USA); host or cells: human serum
T4 sequence (P06276 29-602): as the sequence (P06276 29-602) above
Procedure: To further understand the action mechanism for BChE inhibition of this series of compounds, the kinetic assay was performed with the optimal compound 23 as a model compound. […]. […] The result was confirmed by the subsequent molecular docking study of 23. […].
Kinetic study of BChE inhibition was performed by using Ellman’s method as described in Section 3.3.
Figure 3 Kinetic study of 23 on BChE inhibition. […];

| SMILES | AChE IR (%) inhibition ratio [2] [%] | BChE IR (%) inhibition ratio [3] [%] | further results |
| --- | --- | --- | --- |
| O=C(c1ccc(CN2CCc3ccccc3C2)cc1)N1CCCC1 [Compound 9, (4-((3,4-dihydroisoquinolin-2(1H)-yl)methyl)phenyl)(pyrrolidin-1-yl)methanone] | 29.1 | 95.1 | viability at 5 µM [1]: 84.7 ± 1.77%; viability at 10 µM [1]: 88.8 ± 0.81%; improved BChE inhibitory activity, folds compared with 1 [3]: 9 fold; IC50 [3]: 2.68 ± 0.28 µM; cytotoxicity towards SH-SY5Y cells [4]: did not show obvious cytotoxicity; also recorded: non-toxic; inhibitory activity against Aβ1-42 aggregation (in words) (Aβ1-42 aggregation): dose-dependent manner; inhibition ratio towards Aβ1-42 aggregation (Aβ1-42 aggregation): 45.5 ± 6.2% |
| O=C(Nc1ccccc1F)c1ccc(CN2CCc3ccccc3C2)cc1 [Compound 16, 4-((3,4-dihydroisoquinolin-2(1H)-yl)methyl)-N-(2-fluorophenyl)benzamide] | 2.1 | 74.7 | IC50 [3]: 6.9 µM and 6.93 µM |
| O=C(Nc1cccc(F)c1)c1ccc(CN2CCc3ccccc3C2)cc1 [Compound 17, 4-((3,4-dihydroisoquinolin-2(1H)-yl)methyl)-N-(3-fluorophenyl)benzamide] | 7.7 | 10.0 | – |
| O=C(Nc1ccc(F)cc1)c1ccc(CN2CCc3ccccc3C2)cc1 [Compound 18, 4-((3,4-dihydroisoquinolin-2(1H)-yl)methyl)-N-(4-fluorophenyl)benzamide] | 7.0 | 14.1 | – |
| O=C(NCc1ccc(F)cc1)c1ccc(CN2CCc3ccccc3C2)cc1 [Compound 19, 4-((3,4-dihydroisoquinolin-2(1H)-yl)methyl)-N-(4-fluorobenzyl)benzamide] | 2.3 | 83.9 | IC50 [3]: 14.8 ± 0.58 µM |
| O=C(NNc1ccc(F)cc1)c1ccc(CN2CCc3ccccc3C2)cc1 [Compound 20, 4-((3,4-dihydroisoquinolin-2(1H)-yl)methyl)-N2019-(4-fluorophenyl)benzohydrazide] | 21.8 | 13.2 | – |
| O=C(Nc1ccc(Cl)cc1F)c1ccc(CN2CCc3ccccc3C2)cc1 [Compound 21, N-(4-chloro-2-fluorophenyl)-4-((3,4-dihydroisoquinolin-2(1H)-yl)methyl)benzamide] | 5 | 38.6 | – |
| O=C(Nc1ccc(Br)cc1F)c1ccc(CN2CCc3ccccc3C2)cc1 [Compound 22, N-(4-bromo-2-fluorophenyl)-4-((3,4-dihydroisoquinolin-2(1H)-yl)methyl)benzamide] | 28.3 | 15.4 | – |
| O=C(Nc1ccccc1Br)c1ccc(CN2CCc3ccccc3C2)cc1 [Compound 23, N-(2-bromophenyl)-4-((3,4-dihydroisoquinolin-2(1H)-yl)methyl)benzamide] | 22.7 | 97.9 | viability at 5 µM [1]: 91.1 ± 1.25%; viability at 10 µM [1]: 98 ± 1.7%; Ki (BChE; BChE, read-out: KI value (replot of slope against concentration)): 0.52 µM; type of BChE inhibition (BChE; Lineweaver-Burk plots): mixed-type inhibitor; fold increase in BChE inhibitory potency ([3]; compared with 9): about 3 fold; fold increase in BChE inhibitory potency ([3]; compared with 16): ~8 fold; improved BChE inhibitory activity, folds compared with 1 [3]: 21 fold; IC50 [3]: 0.83 ± 0.08 µM; cytotoxicity towards SH-SY5Y cells [4]: did not show obvious cytotoxicity; also recorded: non-toxic; inhibitory activity against Aβ1-42 aggregation (in words) (Aβ1-42 aggregation): dose-dependent manner; inhibition ratio towards Aβ1-42 aggregation (Aβ1-42 aggregation): 44.2 ± 3.3% |
| O=C(Nc1cccc(Br)c1)c1ccc(CN2CCc3ccccc3C2)cc1 [Compound 24, N-(3-bromophenyl)-4-((3,4-dihydroisoquinolin-2(1H)-yl)methyl)benzamide] | 21.6 | 35.1 | – |
| O=C(Nc1ccc(Br)cc1)c1ccc(CN2CCc3ccccc3C2)cc1 [Compound 25, N-(4-bromophenyl)-4-((3,4-dihydroisoquinolin-2(1H)-yl)methyl)benzamide] | 40.6 | 8.1 | – |
| O=C(Oc1ccccc1Br)c1ccc(CN2CCc3ccccc3C2)cc1 [Compound 26, 2-bromophenyl 4-((3,4-dihydroisoquinolin-2(1H)-yl)methyl)benzoate] | 26.2 | 11 | – |
| O=C(Sc1ccccc1Br)c1ccc(CN2CCc3ccccc3C2)cc1 [Compound 27, S-(2-bromophenyl) 4-((3,4-dihydroisoquinolin-2(1H)-yl)methyl)benzothioate] | 22.8 | 1.5 | – |
| O=C(NCCc1c[nH]c2ccccc12)c1ccc(CN2CCc3ccccc3C2)cc1 [Compound 28, N-(2-(1H-indol-3-yl)ethyl)-4-((3,4-dihydroisoquinolin-2(1H)-yl)methyl)benzamide] | 8.4 | 1.3 | – |
| Cc1ccc2[nH]cc(CCNC(=O)c3ccc(CN4CCc5ccccc5C4)cc3)c2c1 [Compound 29, 4-((3,4-dihydroisoquinolin-2(1H)-yl)methyl)-N-(2-(5-methyl-1H-indol-3-yl)ethyl)benzamide] | 4.6 | 6.5 | – |
| COc1ccc2[nH]cc(CCNC(=O)c3ccc(CN4CCc5ccccc5C4)cc3)c2c1 [Compound 30, 4-((3,4-dihydroisoquinolin-2(1H)-yl)methyl)-N-(2-(5-methoxy-1H-indol-3-yl)ethyl)benzamide] | 8.3 | 1.1 | – |
| O=C(O[C@@H]1Cc2c(O)cc(O)cc2O[C@@H]1c1cc(O)c(O)c(O)c1)c1cc(O)c(O)c(O)c1 [EGCG, epigallocatechin gallate, reference compound] | – | – | cell viability of Aβ1-42-treated SH-SY5Y cells ([1]; compound at 10 μM, 10 μM Aβ1-42 for 24h): 87.18 ± 1.29% |
